From the supplement of paper PMC10307832

Experiments:
Test in all cases: relative viability (nuclei count vs DMSO), 5 days (fraction); higher = more cells survive
[1] = compound: CC[C@@H](C)CNCC(=O)N1CCC2=C([C@@H]1COC3=CC=CC(=C3)C)C=CS2 [RU-SKI 43] + CC(=O)c1c(C)c2cnc(Nc3ccc(N4CCNCC4)cn3)nc2n(C2CCCC2)c1=O [Palbociclib] (partner 0.5 µM)
Outline: (§1)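 Cells from lung cancer lines were seeded into 1536-well plates and, one day later, dosed by pin tool. Treatments were either a single drug or a fixed dose of an anchor drug with five library-drug doses (not always all listed) in √10 steps. After 5 days, nuclei were stained in a one-step fixation (final 0.05% Triton X-100, 1% formaldehyde, 1 ug/ml Hoechst) and counted on 4× images, and relative viability is the treated-to-vehicle nuclei ratio, as the median of duplicate plates.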

[2] = compound: CC[C@@H](C)CNCC(=O)N1CCC2=C([C@@H]1COC3=CC=CC(=C3)C)C=CS2 [RU-SKI 43] + N=C(N)NC(=N)NCCc1ccccc1 [Phenformin] (partner 250 µM)
Outline: as §1

[3] = compound: CCc1c2c(nc3ccc(OC(=O)N4CCC(N5CCCCC5)CC4)cc13)-c1cc3c(c(=O)n1C2)COC(=O)[C@]3(O)CC [Irinotecan] + C[C@@H](Oc1cc(-c2cnn(C3CCNCC3)c2)cnc1N)c1c(Cl)ccc(F)c1Cl [Crizotinib] (partner 1 µM)
Outline: as §1

[4] = compound: Cn1cc(-c2cnc3ccc4ccc(CS(=O)(=O)NCc5ccccn5)cc4c(=O)c3c2)cn1 [MK-8033] + CC(C)C[C@H](NC(=O)[C@H](Cc1ccccc1)NC(=O)c1cnccn1)B(O)O [Bortezomib] (partner 0.002 µM)
Outline: as §1

| Cell Line | relative viability ([1]; first compound 0.1 µM) | relative viability ([1]; first compound 0.3162 µM) | relative viability ([1]; first compound 1 µM) | relative viability ([1]; first compound 3.162 µM) | relative viability ([1]; first compound 10 µM) | relative viability ([2]; first compound 0.1 µM) | relative viability ([2]; first compound 0.3162 µM) | relative viability ([2]; first compound 1 µM) | relative viability ([2]; first compound 3.162 µM) | relative viability ([2]; first compound 10 µM) | relative viability ([3]; first compound 0.6325 µM) | relative viability ([3]; first compound 2 µM) | relative viability ([3]; first compound 6.325 µM) | relative viability ([3]; first compound 20 µM) | relative viability ([4]; first compound 0.02 µM) | relative viability ([4]; first compound 0.06325 µM) | relative viability ([4]; first compound 0.2 µM) | relative viability ([4]; first compound 0.6325 µM) | relative viability ([4]; first compound 2 µM) |
| --- | --- | --- | --- | --- | --- | --- | --- | --- | --- | --- | --- | --- | --- | --- | --- | --- | --- | --- | --- |
| NCI-H2228 | 0.735 | 1.05 | 0.892 | 0.535 | 0.737 | 0.239 | 0.407 | 0.237 | 0.329 | 0.278 | 0.597 | 0.518 | 0.39 | 0.433 | 1.04 | 0.932 | 1.08 | 0.998 | 1.06 |
| LC-2-ad | 0.509 | 0.579 | 0.532 | 0.514 | 0.445 | 0.578 | 0.628 | 0.637 | 0.527 | 0.558 | 0.359 | 0.314 | 0.258 | 0.186 | 1.12 | 0.996 | 0.885 | 0.996 | 0.933 |
| LCLC-97TM1 | 0.296 | 0.189 | 0.281 | 0.222 | 0.231 | 0.463 | 0.471 | 0.422 | 0.43 | 0.384 | 0.107 | 0.208 | 0.185 | 0.239 | 1.14 | 0.616 | 0.597 | 0.654 | 0.499 |
| SK-LU-1 | 0.386 | 0.386 | 0.403 | 0.416 | 0.354 | 0.531 | 0.689 | 0.555 | 0.715 | 0.502 | 0.404 | 0.572 | 0.474 | 0.463 | 1.31 | 0.955 | 1.32 | 0.883 | 1.18 |
